{"source": "ChEMBL document CHEMBL1126318", "about": "“Discovery of a potent substance P antagonist: recognition of the key molecular determinant” (J Med Chem, 1992)", "target": "Substance-P receptor (Homo sapiens, UniProt P25103)", "sequence (P25103 whole entry)": "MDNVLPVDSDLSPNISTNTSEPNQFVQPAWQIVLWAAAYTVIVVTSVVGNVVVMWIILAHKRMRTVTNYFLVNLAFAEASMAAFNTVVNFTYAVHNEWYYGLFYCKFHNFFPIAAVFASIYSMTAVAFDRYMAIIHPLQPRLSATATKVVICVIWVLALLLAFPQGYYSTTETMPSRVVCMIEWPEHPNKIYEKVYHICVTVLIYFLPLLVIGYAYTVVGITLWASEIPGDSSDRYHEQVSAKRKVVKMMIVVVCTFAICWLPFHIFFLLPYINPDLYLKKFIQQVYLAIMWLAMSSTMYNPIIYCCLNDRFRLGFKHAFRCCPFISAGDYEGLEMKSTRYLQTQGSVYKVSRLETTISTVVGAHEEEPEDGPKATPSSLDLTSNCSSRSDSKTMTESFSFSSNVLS", "test": "In vitro binding affinity for the Tachykinin receptor 1 in human IM-9 cell using [125I]BH-SP of the compound.", "type": "cell-based", "data": [{"smiles": "COc1ccccc1CN[C@H]1CCCN[C@H]1C(c1ccccc1)c1ccccc1", "note": "(racemic)", "values": [{"measurement": "Ki", "value": 49, "unit": "nM"}]}]}
